Laboratory results: patent US9234176B2, “Chemically defined production of cardiomyocytes from pluripotent stem cells” (The Board of Trustees of the Leland Stanford Junior …, priority 2012, dated 2016)

Tests used:
hiPSC = test: Analysis of components of defined media for hiPSC cardiac differentiation (contraction score); type: cell-based, human; design: 9 components subtracting: cardiac differentiation score / 2 components subtracting: cardiac differentiation score: key: 0: no cardiac differentiation or cell death; +: some contraction; ++: >50% contraction; +++: >75% contraction; conditions: for 21 components subtracting: cardiac differentiation score: a) each of the 21 components of B27 without insulin subtracted one at a time, score of medium lacking the component; for 10 components subtracting: cardiac differentiation score: b) second medium of 10 essential components, each subtracted one at a time; for 9 components subtracting: cardiac differentiation score: c) 9-component medium; for 9 components subtracting: cardiac differentiation score / 9 components (with 4 at 10x) subtracting: cardiac differentiation score / 6 components subtracting: cardiac differentiation score: each component subtracted; for 9 components (with 4 at 10x) subtracting: cardiac differentiation score: e) third medium with increased concentrations; for 6 components subtracting: cardiac differentiation score: f) fourth 6-component medium
Description: Development of a Chemically Defined Cardiac Differentiation Platform. We first generated eleven pluripotent hiPSC lines under chemically defined conditions (FIG. 7) on a chemically synthesized vitronectin peptide substrate, with nonenzymatic passaging (FIG. 8). […] To formulate a chemically defined differentiation protocol, we concentrated on the observation that three unrelated media formations are capable of supporting growth factor-based monolayer cardiac differentiation: RPMI+B27-ins, supplemented StemPro-34, and LI-APEL (Table 5). […] Beginning with the 21 components of B27, we subtracted one component at a time and assessed for continued high efficiency differentiation (Table 6a-c) and also assessed components from two other two media (supplemented StemPro-34 and LI-APEL) that yielded benefits (Table 6d-f). We concluded that hiPSC cardiac differentiation was successful in a media consisting of […]: RPMI 1640 basal medium, L-ascorbic acid 2-phosphate (AA 2-P), and BSA (Table 6g).
Other additions to cardiac differentiation media tested were 10.7 μg/mL recombinant human transferrin, […], 1 μg/mL linoleic acid, 1 μg/mL linolenic acid, 2 ng/mL triiodo-l-thyronine, 2 μg/mL L-carnitine, 1 μg/mL D,L-alpha-tocopherol acetate, 100 ng/mL retinol acetate, 1 μg/mL ethanolamine, 20 ng/mL corticosterone, 9 ng/mL progesterone, 47 ng/mL lipoic acid, 100 ng/mL retinol, 1 μg/mL D,L-alpha-tocopherol, 100 ng/mL biotin, 2.5 ug/mL catalase, 2.5 μg/mL glutathione, 2.5 μg/mL superoxide dismutase, 2 μg/mL L-carnitine, 15 μg/mL D(+)-galactose, 16.1 μg/mL putrescine, 450 μM 1-thioglycerol, 55 μM 2-mercaptoethanol, 64 μg/mL L-ascorbic acid 2-phosphate (all from Sigma-Aldrich).

hPSC = test: Directed cardiac differentiation of hPSC in minimal media (Example 1); type: cell-based, human; conditions: for Wnt signaling antagonist effective for cardiac differentiation: at a concentration of 5 μM; for further enhancement of differentiation by pathway inhibitors: small molecule inhibitors at the later stage of differentiation
Experimental: Directed Cardiac Differentiation Procedure. (volumes provided are for a T25 flask; adjust volumes proportionately for larger vessels) Day 0 (day 4 after passage): Aspirate medium, and replace with 5 mL of minimal media (CDM3, D3, D4, or D11) supplemented with 6 uM of CHIR-99021 (CHIR-99021 can be used at 4-15 μM). Place flasks in a regular ambient O2, 5% CO2 incubator. Day 2: 48 h. Aspirate media and replace with 5 mL of minimal media (CDM3, D3, D4, or D11). Day 3: 72 h. Aspirate media and replace with 5 mL of minimal media (CDM3, D3, D4, or D11) supplemented with 0.5 uM C59 (C59 may be used at 0.5-5 μM). Day 5: Aspirate media and replace with 5 mL of minimal media (CDM3, D3, D4, or D11). From day 5 onwards media should be changed every 2 days with minimal media (CDM3, D3, D4, or D11).
From day 0 to day 2 (d0-d2), minimal media (CDM3, D3, D4, or D11) was supplemented with the Wnt signaling agonist CHIR-99021 (6-10 uM 48 h, d0-d2), which triggers canonical Wnt/β-Catenin signaling that leads to the subsequent up-regulation of BMP4 and activin A. Media is then exchanged to non-supplemented minimal media (CDM3, D3, D4, or D11) for 1 day followed by contact with a Wnt signaling antagonist (e.g., C59: 0.5-5 uM, 48 h, d3-d5) for 2 days. At day 5, 7, and 9 minimal media (CDM3, D3, D4, or D11) is exchanged for fresh media, and contraction begins between d7 and d10. At day 11, media is exchanged to a variant of minimal media (CDM3, D3, D4, or D11) without […] that results in the depletion of non-cardiomyocytes due to a lack of glycogen stores. Media was exchanged on day 13 for fresh media lacking glucose. At day 15, media was exchanged for fresh minimal media (CDM3, D3, D4, or D11) (containing glucose).
The presence of cardiomyocytes was verified in a number of different ways, for example: flow cytometry of cells contacted with an antibody specific for a cardiomyocyte marker (TNNT2); imaging of cells stained with antibodies specific for α-Sarcomeric actin (red) and Troponin T (TNNT2); electrophysiological profiling; and evaluating responsiveness to known cardioactive drugs (e.g., Norepinephrine). Assays performed on multiple different cell lines (including several hESC lines and over 30 hiPSC lines) confirmed that the subject methods are highly consistent and highly efficient, as very little variability was observed among the different cell lines.

[1] = d) component at 10 x concentration

NCCO [Ethanolamine]
21 components subtracting: cardiac differentiation score (hiPSC): ++ (>50% contraction)

O=C(O)CCCC[C@@H]1CCSS1 (racemic) [Lipoic acid]
21 components subtracting: cardiac differentiation score (hiPSC): ++ (>50% contraction)

CC1=C(/C=C/C(C)=C/C=C/C(C)=C/CO)C(C)(C)CCC1 [Retinol, all trans (vit. A), Retinol, all trans]
21 components subtracting: cardiac differentiation score (hiPSC): ++ (>50% contraction)

COc1ccccc1-n1c(SCC(=O)Nc2nc3ccc(C)cc3s2)nc2c(c1=O)SCC2 [IWP-4, 2-(3,4,6,7-tetrahydro-3-(2-methoxyphenyl)-4-oxothieno[3,2-d]pyrimidin-2-ylthio)-N-(6-methylbenzo[d]thiazol-2-yl)acetamide]
Wnt signaling antagonist effective for cardiac differentiation (hPSC): effective

CC(=O)OC/C=C(C)/C=C/C=C(C)/C=C/C1=C(C)CCCC1(C)C [Retinol acetate (vit A), Retinol acetate]
21 components subtracting: cardiac differentiation score (hiPSC): 0
10 components subtracting: cardiac differentiation score (hiPSC): 0
9 components subtracting: cardiac differentiation score (hiPSC): 0
9 components with the addition of: cardiac differentiation score (hiPSC; [1]): +++ (>75% contraction)
9 components (with 4 at 10x) subtracting: cardiac differentiation score (hiPSC): +++ (>75% contraction)

N[C@@H](CCC(=O)N[C@@H](CS)C(=O)NCC(=O)O)C(=O)O [Glutathione (reduced)]
21 components subtracting: cardiac differentiation score (hiPSC): ++ (>50% contraction)

NCCCCN [Putrescine]
21 components subtracting: cardiac differentiation score (hiPSC): ++ (>50% contraction)

O=c1[nH]c(-c2ccc(C(F)(F)F)cc2)nc2c1CSCC2 [XAV939, 3,5,7,8-Tetrahydro-2-[4-(trifluoromethyl)phenyl]-4H-thiopyrano[4,3-d]pyrimidin-4-one]
Wnt signaling antagonist effective for cardiac differentiation (hPSC): effective

Cc1ccc2nc(NC(=O)CSc3nc4c(c(=O)n3-c3ccccc3)SCC4)sc2c1 [IWP-2, N-(6-Methyl-2-benzothiazoyl)-2-[(3,4,6,7-tetrahydro-4-oxo-3-phenylthieno[3,2-d]pyrimidin-2-yl)thio]-acetamide]
Wnt signaling antagonist effective for cardiac differentiation (hPSC): effective

O=C(O)CCCC[C@@H]1SC[C@@H]2NC(=O)N[C@@H]21 [Biotin (vit B7), Biotin]
21 components subtracting: cardiac differentiation score (hiPSC): ++ (>50% contraction)

Catalase
21 components subtracting: cardiac differentiation score (hiPSC): ++ (>50% contraction)

CCCCC/C=C\C/C=C\CCCCCCCC(=O)O [Linoleic acid]
21 components subtracting: cardiac differentiation score (hiPSC): 0
10 components subtracting: cardiac differentiation score (hiPSC): 0
9 components subtracting: cardiac differentiation score (hiPSC): 0
9 components with the addition of: cardiac differentiation score (hiPSC; [1]): +
9 components (with 4 at 10x) subtracting: cardiac differentiation score (hiPSC): 0
6 components subtracting: cardiac differentiation score (hiPSC): +++ (>75% contraction)

C[S+]([O-])c1ccc(-c2nc(-c3ccncc3)c(-c3ccc(F)cc3)[nH]2)cc1 (centres unmarked) [SB203580]
further enhancement of differentiation by pathway inhibitors (hPSC): did not further enhance the differentiation

c1ccc2c(-c3cnn4cc(-c5ccc(N6CCNCC6)cc5)cnc34)ccnc2c1 [LDN193189]
further enhancement of differentiation by pathway inhibitors (hPSC): did not further enhance the differentiation

O=C(Nc1cccc2cccnc12)c1ccc(N2C(=O)C3C4C=CC(C4)C3C2=O)cc1 (centres unmarked) [IWR-1, 4-(1,3,3a,4,7,7a-Hexahydro-1,3-dioxo-4,7-methano-2H-isoindol-2-yl)-N-8-quinolinyl-Benzamide]
Wnt signaling antagonist effective for cardiac differentiation (hPSC): effective

O=C1[C@H](Cc2ccc(O)cc2)N2C(=O)CCN(C(=O)NCc3ccccc3)[C@H]2CN1Cc1cccc2ccccc12 [ICG-001, (6S,9aS)-6-(4-hydroxybenzyl)-N-benzyl-8-(naphthalen-1-ylmethyl)-4,7-diaxo-hexahydro-2H-pyrazino[1,2-a]pyrimidine-1(6H)-carboxamide]
Wnt signaling antagonist effective for cardiac differentiation (hPSC): not found to be effective

CC(=O)[C@H]1CC[C@H]2[C@@H]3CCC4=CC(=O)CC[C@]4(C)[C@H]3CC[C@]12C [Progesterone]
21 components subtracting: cardiac differentiation score (hiPSC): ++ (>50% contraction)

NC(=O)c1ccc(-c2nc(-c3ccc4c(c3)OCO4)c(-c3ccccn3)[nH]2)cc1 [B8431542]
further enhancement of differentiation by pathway inhibitors (hPSC): did not further enhance the differentiation

C[N+](C)(C)C[C@H](O)CC(=O)[O-] [L-carnitine]
21 components subtracting: cardiac differentiation score (hiPSC): 0
10 components subtracting: cardiac differentiation score (hiPSC): 0
9 components subtracting: cardiac differentiation score (hiPSC): 0
9 components with the addition of: cardiac differentiation score (hiPSC; [1]): 0

Holo transferrin: B27 component
21 components subtracting: cardiac differentiation score (hiPSC): 0
10 components subtracting: cardiac differentiation score (hiPSC): 0
9 components subtracting: cardiac differentiation score (hiPSC): 0
9 components with the addition of: cardiac differentiation score (hiPSC; [1]): +
6 components subtracting: cardiac differentiation score (hiPSC): +++ (>75% contraction)

Cc1c(C)c2c(c(C)c1O)CCC(C)(CCCC(C)CCCC(C)CCCC(C)C)O2 [D,L-a-tocopherol (vit E), D,L-a-tocopherol]
21 components subtracting: cardiac differentiation score (hiPSC): ++ (>50% contraction)

C[C@]12C[C@H](O)[C@H]3[C@@H](CCC4=CC(=O)CC[C@@]43C)[C@@H]1CC[C@@H]2C(=O)CO [Corticosterone]
21 components subtracting: cardiac differentiation score (hiPSC): 0
10 components subtracting: cardiac differentiation score (hiPSC): ++ (>50% contraction)

N[C@@H](Cc1cc(I)c(Oc2ccc(O)c(I)c2)c(I)c1)C(=O)O [T3 (triiodol-l-thyronine), triiodol-l-thyronine]
21 components subtracting: cardiac differentiation score (hiPSC): 0
10 components subtracting: cardiac differentiation score (hiPSC): 0
9 components subtracting: cardiac differentiation score (hiPSC): 0
9 components with the addition of: cardiac differentiation score (hiPSC; [1]): +++ (>75% contraction)
9 components (with 4 at 10x) subtracting: cardiac differentiation score (hiPSC): +++ (>75% contraction)

CC(=O)Oc1c(C)c(C)c2c(c1C)CCC(C)(CCCC(C)CCCC(C)CCCC(C)C)O2 [D,L-a-tocopherol acetate]
21 components subtracting: cardiac differentiation score (hiPSC): 0
10 components subtracting: cardiac differentiation score (hiPSC): 0
9 components subtracting: cardiac differentiation score (hiPSC): 0
9 components with the addition of: cardiac differentiation score (hiPSC; [1]): +++ (>75% contraction)
9 components (with 4 at 10x) subtracting: cardiac differentiation score (hiPSC): +++ (>75% contraction)

C[C@]12CCC(=O)C=C1CC[C@@H]1[C@@H]2[C@@H](O)C[C@@]2(C)[C@H]1CC[C@]2(O)C(=O)CO [Hydrocortisone]
9 components with the addition of: cardiac differentiation score (hiPSC; d) addition of components from the other media formulae of Table 5): +

O=[Se](O)O [Sodium selenite]
21 components subtracting: cardiac differentiation score (hiPSC): 0
10 components subtracting: cardiac differentiation score (hiPSC): 0
9 components subtracting: cardiac differentiation score (hiPSC): 0
9 components with the addition of: cardiac differentiation score (hiPSC; [1]): +++ (>75% contraction)
6 components subtracting: cardiac differentiation score (hiPSC): +++ (>75% contraction)

CC/C=C\C/C=C\C/C=C\CCCCCCCC(=O)O [Linolenic acid]
21 components subtracting: cardiac differentiation score (hiPSC): 0
10 components subtracting: cardiac differentiation score (hiPSC): 0
9 components subtracting: cardiac differentiation score (hiPSC): 0
9 components with the addition of: cardiac differentiation score (hiPSC; [1]): +
9 components (with 4 at 10x) subtracting: cardiac differentiation score (hiPSC): 0
6 components subtracting: cardiac differentiation score (hiPSC): +++ (>75% contraction)

O=C[C@H](O)[C@@H](O)[C@@H](O)[C@H](O)CO [D(+)-galactose]
21 components subtracting: cardiac differentiation score (hiPSC): ++ (>50% contraction)
